Results: patent publication US7745120B2, “Cell culture and method for screening for a compound useful in the treatment or prevention of hepatic cirrhosis” (Industrial Technology Research Institute, priority 2004, dated 2010)
“Also recorded” adds a separate entry of the source.

Legend:
Format in all cases: cell-based, human
[1] = tested on: Huh-7PALB-EGFP and immortalized HSC coculture; experiment: methylene blue assay of cell activity in thioacetamide-damaged co-culture; settings: interferon-α 1000, 5000, 10000 IU/ml added 3 hours before 100 mM thioacetamide; read after 24 hours; FIG. 11A
Experimental: Modified human HSCs and Huh-7 cells obtained from examples 1 and 6 were co-cultured via layer by layer culturing. Immortalized human HSCs were cultured in a 24-well culture plate, wherein each well was coated with extracellular matrix before use. The extracellular maxtrix used in the present example was Type I collagen or Matrigel. Six hours after the HSCs were attached, Huh-7 cells carrying albumin promoter (pLpLhyg-PAlb5/3-EGFP) (Huh-7PALB-EGFP) were subsequently cultured on the top of the attached HSCs.
One day later, 1000, 5000, 10000 IU/ml of interferon-α(F. Hoffman-La Roche, Ltd.) was added into cells respectively. Three hours later, 100 mM of thioacetamide (Sigma-Aldrich, Co.) was added to damage the cells. After 24 hours, methylene blue assay was conducted for analyzing the cell activity. In the meantime, the intensity of green fluorescence was determined by a fluorescence reader, and the result is shown in FIG. 11B.

[2] = tested on: Huh-7PALB-EGFP and immortalized HSC coculture; experiment: green fluorescence intensity (EGFP reporter under albumin promoter) by fluorescence reader in thioacetamide-damaged co-culture; settings: interferon-α 1000, 5000, 10000 IU/ml added 3 hours before 100 mM thioacetamide; read after 24 hours; two independent experiments, average of 3 wells; FIG. 11B
Experimental: The fluorescence signal expressed from transfected cells of example 5 was observed under a fluorescence microscope, and the fluorescence intensity was analyzed by image analysis software. Fluorescence intensity of EGFP was determined by a fluorescence reader and an fluorescence ELISA reader. The excitation wavelength was 488 nm, and the emission wavelength was 510 nm while the green fluorescence from the EGFP gene was detected. When the red fluorescence from DsRed gene was detected, the excitation wavelength was 558 nm, and the emission wavelength was 583 nm. A flow cytometry (for example, FACSCalibur, Becton Dickinson, Inc.) can also be used to determine the intensity of fluorescence.
Modified human HSCs and Huh-7 cells obtained from examples 1 and 6 were co-cultured via layer by layer culturing. Immortalized human HSCs were cultured in a 24-well culture plate, wherein each well was coated with extracellular matrix before use. The extracellular maxtrix used in the present example was Type I collagen or Matrigel. […]
One day later, 1000, 5000, 10000 IU/ml of interferon-α(F. Hoffman-La Roche, Ltd.) was added into cells respectively. […] In the meantime, the intensity of green fluorescence was determined by a fluorescence reader, and the result is shown in FIG. 11B.

[3] = tested on: immortalized hepatocyte THLE-2 and immortalized HSC coculture; experiment: methylene blue assay of cell activity in thioacetamide-damaged co-culture of normal hepatocytes and HSCs; settings: THLE-2 / HSC co-culture; interferon-α 1000, 5000, 10000 IU/ml added 3 hours before thioacetamide; read after another 24 hours; FIG. 11C
Experimental: To compare the cells in the present example with the normal hepatocytes and HSCs after drug treatment, immortalized human hepatocytes THLE-2 (ATCC NO: CRL-2706, normal primary hepatocytes immortalized by SV40 large T antigen gene) and untransfected human HSCs were co-cultured following procedures described as the above. After 24 hours, 1000,5000,10000 IU/ml of interferon-αwere added. Thioacetamide was applied to damage the cells after 3 hours. After another 24 hours, the cell activity was examined by methylene blue assay, and the result is shown as FIG. 11C. The result corresponds to that of the cell model for drug screening with pLpLhyg-PAlb5/3-EGFP transfected cells (FIG. 11A).

interferon-α
effect on damage from thioacetamide, methylene blue assay (cell activity) [1]: decreased the damage from thioacetamide; also recorded: decreased cell damaged by thioacetamide
effect on damage from thioacetamide, fluorescence intensity expressed by Huh-7PALB-EGFP [2]: decreased the damage from thioacetamide; also recorded: decreased cell damaged by thioacetamide
effect on damage from thioacetamide, methylene blue assay (cell activity) [3]: decreased the damage from thioacetamide
